Measured values published in article PMC5786431 (Journal of medicinal chemistry, 2017).

Columns and labels:
[1] = Plasma concentration after oral administration; type: in vivo, mice; settings: 100 mg/kg in 0.5% CMC suspension p.o.; 0.5 and 4 h; among 14b, 14g, 24a, 24c, 28a, 28c
[2] = intramuscular injection; cited from earlier work

Structure (SMILES) | plasma levels [1] | lag to reach steady-state concentrations [2]
Cc1cc(F)cc(C)c1C(=O)c1sc2cc(O)ccc2c1Oc1ccc(/C=C/C(=O)O)cc1 [Compound 24c] | highest plasma levels | –
Cc1ccc(C(=O)c2sc3cc(O)ccc3c2Oc2ccc(/C=C/C(=O)O)cc2)c(C)c1 [Compound 28a, (E)-3-(4-((2-(2,4-dimethylbenzoyl)-6-hydroxybenzo[b]thiophen-3-yl)oxy)phenyl)acrylic acid] | highest plasma levels | –
Cc1cc(Cl)cc(C)c1C(=O)c1sc2cc(O)ccc2c1Oc1ccc(/C=C/C(=O)O)cc1 [Compound 28c, (E)-3-(4-((2-(4-chloro-2,6-dimethylbenzoyl)-6-hydroxybenzo[b]thiophen-3-yl)oxy)phenyl)acrylic acid] | highest plasma levels | –
C[C@]12CC[C@@H]3c4ccc(O)cc4C[C@@H](CCCCCCCCC[S+]([O-])CCCC(F)(F)C(F)(F)F)[C@H]3[C@@H]1CC[C@@H]2O (stereo partly shown) [Compound 1, fulvestrant] | – | 3–6 month
